One assay relates to TPR-Met/NIH3T3 cells. As to the kind of experiment: In-vivo test, TPR-Met/NIH3T3 tumour model in mice. Conditions: 200 mg/kg daily by gastric tube, 9 days; tumour volume; female Balb/C mice, s.c. TPR-Met/NIH3T3 cells. The procedure:
Female Balb/C mice (breeder: Charles River Wiga) were 5 weeks old on arrival. They were acclimatised to our keeping conditions for 7 days. Each mouse was subsequently injected subcutaneously in the pelvic area with 4 million TPR-Met/NIH3T3 cells in 100 μl of PBS (without Ca++ and Mg++). […] 100 μl of vehicle (0.25% methylcellulose/100 mM acetate buffer, pH 5.5) were administered daily to the control group, and 200 mg/kg of “A56” or “A91” dissolved in the vehicle (volume likewise 100 μl/animal) were administered daily to the treatment groups, in each case by gastric tube.
The length (L) and breadth (B) were measured using a Vernier calliper, and the tumour volume was calculated from the formula L×B×B/2.
4 or 5 animals per cage, feeding with commercial mouse food (Sniff).
In the case of `CN1CCN(CCCOc2c(F)cc(-c3ccc(=O)n(Cc4ccc5[nH]c(=O)[nH]c5c4)n3)cc2F)CC1` [Compound A56, 5-(3-{3,5-difluoro-4-[3-(4-methylpiperazin-1-yl)propoxy]-phenyl}-6-oxo-6H-pyridazin-1-ylmethyl)-1,3-dihydrobenzimidazol-2-one], the antitumoural action entry is reported as “significant antitumoural action”.

The target of the next assay is T1, Met kinase (Homo sapiens, UniProt P08581).
T1 construct: 6His (N); purchased Upstate 14-526; host or cells: Sf21 insect cells (S. frugiperda), baculovirus
T1 sequence (P08581 956-1390 limits assumed): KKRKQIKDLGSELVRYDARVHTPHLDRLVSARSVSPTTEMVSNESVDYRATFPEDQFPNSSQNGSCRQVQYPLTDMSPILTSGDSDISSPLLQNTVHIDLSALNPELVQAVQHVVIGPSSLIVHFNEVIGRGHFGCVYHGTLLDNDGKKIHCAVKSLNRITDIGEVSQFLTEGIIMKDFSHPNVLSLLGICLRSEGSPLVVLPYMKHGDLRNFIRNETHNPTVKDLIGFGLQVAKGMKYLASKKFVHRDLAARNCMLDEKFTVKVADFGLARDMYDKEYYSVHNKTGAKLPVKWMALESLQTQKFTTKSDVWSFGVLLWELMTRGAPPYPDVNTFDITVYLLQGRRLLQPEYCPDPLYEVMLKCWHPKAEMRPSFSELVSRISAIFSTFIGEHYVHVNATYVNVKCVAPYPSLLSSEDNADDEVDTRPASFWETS
As to the kind of experiment: Met kinase inhibition (enzyme assay), flashplate method.
Conditions: not given
It counts as biochemical. From the text: According to the manufacturer's data (Met, active, upstate, catalogue No. 14-526), Met kinase is expressed for the purposes of protein production in insect cells (Sf21; S. frugiperda) and subsequent affinity-chromatographic purification as “N-terminal 6His-tagged” recombinant human protein in a baculovirus expression vector.
The test plates used are 96-well Flashplate® microtitre plates from Perkin Elmer (Cat. No. SMP200). The components of the kinase reaction described below are pipetted into the assay plate. The Met kinase and the substrate poly Ala-Glu-Lys-Tyr, (pAGLT, 6:2:5:1), are incubated for 3 hrs at room temperature with radioactively labelled ^33P-ATP in the presence and absence of test substances in a total volume of 100 μl. The reaction is terminated using 150 μl of a 60 mM EDTA solution. After incubation for a further 30 min at room temperature, the supernatants are filtered off with suction, and the wells are washed three times with 200 μl of 0.9% NaCl solution each time. The measurement of the bound radioactivity is carried out by means of a scintillation measuring instrument (Topcount NXT, Perkin-Elmer).
The full value used is the inhibitor-free kinase reaction. This should be approximately in the range 6000-9000 cpm. The pharmacological zero value used is staurosporin in a final concentration of 0.1 mM. The inhibitory values (IC50) are determined using the RS1_MTS program.
Kinase Reaction Conditions Per Well:
10 μl of substance to be tested in assay buffer with 10% of DMSO
10 μl of ATP (final concentration 1 μM cold, 0.35 μCi of ^33P-ATP)
50 μl of Met kinase/substrate mixture in assay buffer;
• (10 ng of enzyme/well, 50 ng of pAGLT/well)
50 mM HEPES • 3 mM magnesium chloride • 3 μM sodium orthovanadate • 3 mM manganese(II) chloride • 1 mM dithiothreitol (DTT) pH=7.5 (to be set using sodium hydroxide)
60 mM Titriplex III (EDTA) • ^33P-ATP: Perkin-Elmer; • Met kinase: Upstate, Cat. No. 14-526, Stock 1 μg/10 μl; spec. activity 954 U/mg; • Poly-Ala-Glu-Lys-Tyr, 6:2:5:1: Sigma Cat. No. P1152 In-Vivo Tests (FIG. 1/1) Experimental Procedure: […]
`CCOC(=O)Nc1cccc(Cn2nc(-c3ccc(OCCN)cc3)ccc2=O)c1` [Compound A48] yielded an IC50 of 10 to 1000 nM.
Still for that read-out and setting: in the case of `CCOC(=O)Nc1cccc(Cn2nc(-c3cccc(OCCCOC)c3)ccc2=O)c1` [Compound A25] it was 10 to 1000 nM; in that of `CCOC(=O)Nc1cccc(Cn2nc(-c3ccc(OCCCCCN)cc3)ccc2=O)c1` [Compound A44], 10 to 1000 nM.
Same read-out and setting: the value for `CCOC(=O)Nc1cccc(Cn2nc(-c3ccc(OCCN4CCOCC4)cc3)ccc2=O)c1` [Compound A1] was 10 to 1000 nM; that for `CCOC(=O)Nc1cccc(Cn2nc(-c3ccc(OCCNC(=O)OC(C)(C)C)cc3)ccc2=O)c1` [Compound A6] was 10 to 1000 nM; that for `CCOC(=O)Nc1cccc(Cn2nc(-c3cccc(OCCCCO)c3)ccc2=O)c1` [Compound A22] was 10 to 1000 nM.
Same read-out and setting: the value for `CCOC(=O)Nc1cccc(Cn2nc(-c3ccc(OCCCN4CCCCC4)cc3)ccc2=O)c1` [Compound A16] was 10 to 1000 nM.
`CCOC(=O)Nc1cccc(Cn2nc(-c3cccc(OCCCCN)c3)ccc2=O)c1` [Compound A49] yielded a concentration for half-maximal inhibition (IC50) of 10 to 1000 nM.
Take `CCOC(=O)Nc1cccc(Cn2nc(-c3ccc(OCCC4CCCN4C)cc3)ccc2=O)c1` (stereo not shown) [Compound A17]: the IC50 was 10 to 1000 nM.
On the same count and under the same terms, the value for `CCOC(=O)Nc1cccc(Cn2nc(-c3ccc(OCCCCN)cc3)ccc2=O)c1` [Compound A50] was 10 to 1000 nM; that for `CCOC(=O)Nc1cccc(Cn2nc(-c3ccc(OCCCCOC)cc3)ccc2=O)c1` [Compound A7] was 10 to 1000 nM; that for `CCOC(=O)Nc1cccc(Cn2nc(-c3ccc(OC4CCCN(CC)C4)cc3)ccc2=O)c1` (stereo not shown) [Compound A15] was 10 to 1000 nM.
Same read-out and setting: in the case of `CCOC(=O)Nc1cccc(Cn2nc(-c3ccc(OCC(=O)N(C)C)cc3)ccc2=O)c1` [Compound A14] it was 10 to 1000 nM; in that of `CCOC(=O)Nc1cccc(Cn2nc(-c3ccc(OCCOC)cc3)ccc2=O)c1` [Compound A5], 10 to 1000 nM.
Still for that read-out and setting: in the case of `CCOC(=O)Nc1cccc(Cn2nc(-c3cc(F)c(OCCCOC)c(F)c3)ccc2=O)c1` [Compound A37] it was 10 to 1000 nM; in that of `CCOC(=O)Nc1cccc(Cn2nc(-c3ccc(OCCN(C(C)C)C(C)C)cc3)ccc2=O)c1` [Compound A13], 10 to 1000 nM.
The compound `CCOC(=O)Nc1cccc(Cn2nc(-c3cccc(OCCNC(=O)OC(C)(C)C)c3)ccc2=O)c1` [Compound A26] gave an IC50 of 10 to 1000 nM.
Same read-out and setting: the value for `CCOC(=O)Nc1cccc(Cn2nc(-c3cc(F)c(OCCCNC)c(F)c3)ccc2=O)c1` [Compound A29a] was 10 to 1000 nM; that for `CCOC(=O)Nc1cccc(Cn2nc(-c3ccc(OCCN(C)C)cc3)ccc2=O)c1` [Compound A8] was 10 to 1000 nM; that for `CCOC(=O)Nc1cccc(Cn2nc(-c3cc(F)c(OCCCCCN)c(F)c3)ccc2=O)c1` [Compound A52] was 10 to 1000 nM.
In turn, `CCOC(=O)Nc1cccc(Cn2nc(-c3ccc(OCCCOC)cc3)ccc2=O)c1` [Compound A11] showed an IC50 of 10 to 1000 nM.
On the same count and under the same terms, in the case of `CCOC(=O)Nc1cccc(Cn2nc(-c3cc(F)c(OCCCCO)c(F)c3)ccc2=O)c1` [Compound A35] it was 10 to 1000 nM; in that of `CCOC(=O)Nc1cccc(Cn2nc(-c3cccc(OCCCCNC(=O)OC(C)(C)C)c3)ccc2=O)c1` [Compound A23], 10 to 1000 nM.
The same measure, in the same setting: the value for `CCOC(=O)Nc1cccc(Cn2nc(-c3cccc(OCCCO)c3)ccc2=O)c1` [Compound A19] was 10 to 1000 nM; that for `CCOC(=O)Nc1cccc(Cn2nc(-c3ccc(OCCCCCNC(=O)OC(C)(C)C)cc3)ccc2=O)c1` [Compound A4] was 10 to 1000 nM.
On the same count and under the same terms, in the case of `CCOC(=O)Nc1cccc(Cn2nc(-c3cc(F)c(OCCOC)c(F)c3)ccc2=O)c1` [Compound A34] it was 10 to 1000 nM; in that of `CCOC(=O)Nc1cccc(Cn2nc(-c3ccc(OCCCCO)cc3)ccc2=O)c1` [Compound A10], 10 to 1000 nM; in that of `CCOC(=O)Nc1cccc(Cn2nc(-c3ccc(OCCCCNC(=O)OC(C)(C)C)cc3)ccc2=O)c1` [Compound A12], 10 to 1000 nM.
`CCOC(=O)Nc1cccc(Cn2nc(-c3cc(F)c(OCCN(C)C)c(F)c3)ccc2=O)c1` [Compound A33] yielded an IC50 of 10 to 1000 nM.
Still for that read-out and setting: the value for `CCOC(=O)Nc1cccc(Cn2nc(-c3cc(F)c(OCCCCCNC(=O)OC(C)(C)C)c(F)c3)ccc2=O)c1` [Compound A31] was 10 to 1000 nM; that for `CCOC(=O)Nc1cccc(Cn2nc(-c3ccc(OCCO)cc3)ccc2=O)c1` [Compound A9] was 10 to 1000 nM.
On the same count and under the same terms, the value for `CN(C)CCCOc1c(F)cc(-c2ccc(=O)n(Cc3ccc4[nH]c(=O)[nH]c4c3)n2)cc1F` [Compound A55, 5-{3-[4-(3-dimethylaminopropoxy)-3,5-difluorophenyl]-6-oxo-6H-pyridazin-1-ylmethyl}-1,3-dihydrobenzimidazol-2-one] was 10 to 1000 nM; that for `CCOC(=O)Nc1cccc(Cn2nc(-c3cccc(OCCN4CCOCC4)c3)ccc2=O)c1` [Compound A24] was 10 to 1000 nM; that for `CCOC(=O)Nc1cccc(Cn2nc(-c3cc(F)c(OCCN)c(F)c3)ccc2=O)c1` [Compound A45] was 10 to 1000 nM.
Compound `CCOC(=O)Nc1cccc(Cn2nc(-c3cc(F)c(OCCCN(C)C)c(F)c3)ccc2=O)c1` [Compound A27] had an IC50 of 10 to 1000 nM.
Still for that read-out and setting: the value for `CCOC(=O)Nc1cccc(Cn2nc(-c3cccc(OCCCCOC)c3)ccc2=O)c1` [Compound A20] was 10 to 1000 nM; that for `CCOC(=O)Nc1cccc(Cn2nc(-c3ccc(OCC(C)CN4CCOCC4)cc3)ccc2=O)c1` (stereo not shown) [Compound A18] was 10 to 1000 nM; that for `CCOC(=O)Nc1cccc(Cn2nc(-c3cc(F)c(OCCCN4CCOCC4=O)c(F)c3)ccc2=O)c1` [Compound A28] was 10 to 1000 nM.
Same read-out and setting: the value for `CCOC(=O)Nc1cccc(Cn2nc(-c3cccc(OCCOC)c3)ccc2=O)c1` [Compound A21] was 10 to 1000 nM.
On the same count and under the same terms, the value for `CCOC(=O)Nc1cccc(Cn2nc(-c3ccc(OCCCO)cc3)ccc2=O)c1` [Compound A2] was 10 to 1000 nM.
`CCOC(=O)Nc1cccc(Cn2nc(-c3cc(F)c(OCCCO)c(F)c3)ccc2=O)c1` [Compound A38]: the IC50 fell in the range of 10 to 1000 nM.
Same read-out and setting: in the case of `CCOC(=O)Nc1cccc(Cn2nc(-c3ccc(OCCCN(C)C)cc3)ccc2=O)c1` [Compound A3] it was 10 to 1000 nM; in that of `CN1CCN(CCCOc2c(F)cc(-c3ccc(=O)n(Cc4ccc5[nH]c(=O)[nH]c5c4)n3)cc2F)CC1` [Compound A56, 5-(3-{3,5-difluoro-4-[3-(4-methylpiperazin-1-yl)propoxy]-phenyl}-6-oxo-6H-pyridazin-1-ylmethyl)-1,3-dihydrobenzimidazol-2-one], 10 to 1000 nM.
As to `CCOC(=O)Nc1cccc(Cn2nc(-c3cc(F)c(OCCCN4CCCC4)c(F)c3)ccc2=O)c1` [Compound A43], the IC50 lay within 10 to 1000 nM.
Same read-out and setting: in the case of `CCOC(=O)Nc1cccc(Cn2nc(-c3cc(F)c(OCCCN)c(F)c3)ccc2=O)c1` [Compound A53] it was 10 to 1000 nM.
